Data reported in PubChem BioAssay AID2060497 (Molecular Pharmacology Branch, DTP, NCI, 2025).
“And” between values parts separate entries of the source, which are not always exact repeats. Equal entries are not always repeated.

Tested on: 317291-083-R-J1-PDC complex spheroids, viability
Test: Anticancer human tumor 317291-083-R-J1-PDC patient-derived soft tissue sarcoma cell line growth inhibition [GQUAD]
Conditions: for viability, T/C: stronger effect = lower value
Description: DNA G-quadruplex Stabilizer Agents in Combinations in Complex Spheroids
A high-throughput screen of multi-cell type tumor spheroids was designed to identify active combinations of DNA G-quadruplex stabilizer agents and targeted small molecules. Complex spheroids include a stromal component modeled by human endothelial cells (HUVEC) and fibroblasts modeled by human mesenchymal stem cells (MSCs). The concentration ranges selected for each drug and investigational agent were based upon clinically achievable concentrations if the clinical Cmax of the agent was known.
Compounds. The drugs and investigational agents: pidnarulex (CX-5461; NSC782164), APTO-253 (NSC789042), BRACO-19 (NSC847499), peposertib (NSC802822), ceralasertib (NSC780249), elimusertib (NSC800525), camonsertib (NSC841442), AZD-1390 (NSC803789), olaparib (NSC753686), talazoparib (NSC767125), ART-558 (NSC835418), sotorasib (NSC818433), MRTX-1133 (NSC836407), SN-38 (NSC673596), topotecan (NSC609699), etoposide (NSC141540), doxorubicin (NSC123127), gemcitabine (NSC613327), 5-fluorouracil (NSC19893), paclitaxel (NSC125973), vemurafenib (NSC761431), panobinostat (NSC761190), R-306465 (JNJ-16241199; NSC773264), adavosertib (NSC754352), TP-3654 (NSC805149), carboplatin (NSC241240), KSQ-4279 (NSC840948), and staurosporine (NSC755774) were obtained from the National Cancer Institute (NCI) Developmental Therapeutics Program Chemical Repository (34). The FDA-approved anticancer drug set is available from the NCI Developmental Therapeutics Program. […] The stock solutions were prepared in dimethyl sulfoxide (DMSO, Sigma-Aldrich, St. Louis, MO, cat. D2650) at 800-fold the tested concentration and stored at -70 degrees C prior to their use. All drugs and investigational agents were tested over a range starting from a high concentration at or near the clinical Cmax and decreasing in half-log increments. If the clinical Cmax for an agent had not been determined, the highest concentration tested was 10 microM.
2.3 Cell Culture. All cells were maintained in an incubator at 37 degrees C and 5% CO2 with 95% humidity. The PDC lines were cultured according to standard operating procedures established by the NCI PDMR. All PDCs were thawed and cultured in Matrigel-coated flasks prepared with a working solution of 1X Ham's F-12 nutrient mix, without supplementation (Invitrogen, cat. 11765054), 100 U/mL penicillin-streptomycin (Invitrogen, cat. 15140122), and 2.5% Matrigel (Corning Inc., cat. 354248) for the first three passages. The 857933-349-R-J2-PDC line was cultured in 6C/Colon 1B media, which includes advanced DMEM/F-12 (Thermo Fisher Scientific, cat. 12634028), 10 mM HEPES (Thermo Fisher Scientific, cat. 15630080), 1X GlutaMAX supplement (Thermo Fisher Scientific, cat. 35050061), 0.1 mg/mL primocin (InvivoGen, cat. ant-pm-2), 10% defined fetal bovine serum, heat inactivated (HyClone Laboratories Inc., cat. SH30070.03HI), 50% L-WRN conditioned media (ATCC, cat. CRL-3276), 1.25 mM N-Acetyl-L-cysteine (Sigma-Aldrich, cat. A9165), 10 mM nicotinamide (Sigma-Aldrich, cat. N0636), 1X B-27 supplement (Thermo Fisher Scientific, cat. 17504044), 1X N-2 supplement (Thermo Fisher Scientific, cat. 17502048), 10 microM Y-27632 dihydrochloride (Tocris Bioscience, cat. 1254), and 50 ng/mL human EGF recombinant protein (Thermo Fisher Scientific, cat. PHG0311). The 485176-168-R4-J1-PDC line was cultured in Panc media, which includes all 6C/Colon 1B media components plus 100 ng/mL human FGF-10 (Thermo Fisher Scientific, cat. 100-26), 500 nM SB-431542 (Selleckchem, cat. S1067), and gastrin (Tocris, cat. 3006).
[…]
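Further: spheroids exposed to compounds for one week before readout.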
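Wherever viability, T/C is given: percent viability relative to DMSO vehicle wells taken as 100%.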

Q: Which viability, T/C (compound 0.0316 µM) does the source give for `O=C(NO)c1cnc(N2CCN(S(=O)(=O)c3ccc4ccccc4c3)CC2)nc1` here?
A: 109% and 96.9% and 93.2%

Q: And the viability, T/C (compound 0.1 µM)?
A: 62.2% and 72.5% and 96.7%

Q: And the viability, T/C (compound 0.316 µM)?
A: 8.74% and 8.1% and 24.6%

Q: What about the viability, T/C (compound 1 µM) of the same compound?
A: 0.24% and 0.48% and 0.9%

Q: What about the viability, T/C (compound 3.16 µM) of the same compound?
A: 0.11% and 0.05% and 0.04%

Q: And the viability, T/C (compound 10 µM)?
A: 0.29% and 1.01% and 0.08%

Q: And the IC50 (curve of compound)?
A: 0.13 µM and 0.149 µM and 0.209 µM

Q: Which results are given for `CC(C)n1c(=O)n(C)c2cnc3cc(F)c(-c4ccc(OCCCN5CCCCC5)nc4)cc3c21`?
A: viability, T/C (compound 0.0316 µM): 104% and 95.2% and 133%; viability, T/C (compound 0.1 µM): 94% and 71.9% and 96.8%; viability, T/C (compound 0.316 µM): 103% and 92.6% and 102%; viability, T/C (compound 1 µM): 106% and 94.4% and 105%; viability, T/C (compound 3.16 µM): 81.3% and 74.1% and 100%; viability, T/C (compound 10 µM): 44.8% and 39.7% and 45.3%; IC50 (curve of compound): 8.47 µM and 7.09 µM and 9.18 µM

Q: Which results are given for `Cc1cccc(N(C)C(=O)C2C(O)CCN2c2nc(C)cc(C(F)(F)F)c2C#N)c1` (stereo not drawn)?
A: viability, T/C (compound 0.0316 µM): 98.9% and 109% and 103%; viability, T/C (compound 0.1 µM): 92.7% and 102% and 96.2%; viability, T/C (compound 0.316 µM): 91.3% and 123% and 98.8%; viability, T/C (compound 1 µM): 106% and 90.7% and 99.7%; viability, T/C (compound 3.16 µM): 105% and 86.5% and 93.1%; viability, T/C (compound 10 µM): 81.7% and 77.5% and 81.6%; IC50 (curve of compound): > 10 µM

Q: For `Nc1ccn(C2OC(CO)C(O)C2(F)F)c(=O)n1` (stereo not drawn) + Cc1cnc(CNC(=O)c2c(=O)c3ccc(N4CCCN(C)CC4)nc3n3c2sc2ccccc23)cn1, which IC50 (curve of first compound, second compound 0.0316 µM) is on record?
A: 0.0347 µM

Q: What about the IC50 (curve of first compound, second compound 0.1 µM) of the same compound?
A: < 0.0316 µM

Q: What about the IC50 (curve of first compound, second compound 0.316 µM) of the same compound?
A: < 0.0316 µM

Q: And the IC50 (curve of first compound, second compound 1 µM)?
A: < 0.0316 µM

Q: What about the IC50 (curve of first compound, second compound 3.16 µM) of the same compound?
A: < 0.0316 µM

Q: And the IC50 (curve of first compound, second compound 10 µM)?
A: < 0.0316 µM

Q: And the viability, T/C (second compound 0.0316 µM, first compound 0.0316 µM)?
A: 53.1%

Q: What about the viability, T/C (second compound 0.0316 µM, first compound 0.1 µM) of the same compound?
A: 20.4%

Q: And the viability, T/C (second compound 0.0316 µM, first compound 0.316 µM)?
A: 17.6%

Q: What about the viability, T/C (second compound 0.0316 µM, first compound 1 µM) of the same compound?
A: 11.2%

Q: What about the viability, T/C (second compound 0.0316 µM, first compound 3.16 µM) of the same compound?
A: 8.79%

Q: And the viability, T/C (second compound 0.0316 µM, first compound 10 µM)?
A: 6.85%

Q: And the viability, T/C (second compound 0.1 µM, first compound 0.0316 µM)?
A: 43.9%

Q: What about the viability, T/C (second compound 0.1 µM, first compound 0.1 µM) of the same compound?
A: 39.9%

Q: What about the viability, T/C (second compound 0.1 µM, first compound 0.316 µM) of the same compound?
A: 11.6%

Q: What about the viability, T/C (second compound 0.1 µM, first compound 1 µM) of the same compound?
A: 15.9%

Q: And the viability, T/C (second compound 0.1 µM, first compound 3.16 µM)?
A: 8.93%

Q: What about the viability, T/C (second compound 0.1 µM, first compound 10 µM) of the same compound?
A: 7.45%

Q: What about the viability, T/C (second compound 0.316 µM, first compound 0.0316 µM) of the same compound?
A: 43.4%

Q: What about the viability, T/C (second compound 0.316 µM, first compound 0.1 µM) of the same compound?
A: 19.6%

Q: What about the viability, T/C (second compound 0.316 µM, first compound 0.316 µM) of the same compound?
A: 11.2%

Q: What about the viability, T/C (second compound 0.316 µM, first compound 1 µM) of the same compound?
A: 8.54%

Q: And the viability, T/C (second compound 0.316 µM, first compound 3.16 µM)?
A: 14.6%

Q: What about the viability, T/C (second compound 0.316 µM, first compound 10 µM) of the same compound?
A: 8.2%

Q: And the viability, T/C (second compound 1 µM, first compound 0.0316 µM)?
A: 31.5%

Q: What about the viability, T/C (second compound 1 µM, first compound 0.1 µM) of the same compound?
A: 21.2%

Q: What about the viability, T/C (second compound 1 µM, first compound 0.316 µM) of the same compound?
A: 26.3%

Q: And the viability, T/C (second compound 1 µM, first compound 1 µM)?
A: 6.79%

Q: What about the viability, T/C (second compound 1 µM, first compound 3.16 µM) of the same compound?
A: 8.1%

Q: And the viability, T/C (second compound 1 µM, first compound 10 µM)?
A: 7.55%

Q: What about the viability, T/C (second compound 3.16 µM, first compound 0.0316 µM) of the same compound?
A: 19%

Q: And the viability, T/C (second compound 3.16 µM, first compound 0.1 µM)?
A: 17.5%

Q: What about the viability, T/C (second compound 3.16 µM, first compound 0.316 µM) of the same compound?
A: 9.09%

Q: And the viability, T/C (second compound 3.16 µM, first compound 1 µM)?
A: 7.43%

Q: And the viability, T/C (second compound 3.16 µM, first compound 3.16 µM)?
A: 5.04%

Q: What about the viability, T/C (second compound 3.16 µM, first compound 10 µM) of the same compound?
A: 5.88%

Q: And the viability, T/C (second compound 10 µM, first compound 0.0316 µM)?
A: 16.9%

Q: What about the viability, T/C (second compound 10 µM, first compound 0.1 µM) of the same compound?
A: 24.9%

Q: What about the viability, T/C (second compound 10 µM, first compound 0.316 µM) of the same compound?
A: 7%

Q: What about the viability, T/C (second compound 10 µM, first compound 1 µM) of the same compound?
A: 8.35%

Q: And the viability, T/C (second compound 10 µM, first compound 3.16 µM)?
A: 5.09%

Q: And the viability, T/C (second compound 10 µM, first compound 10 µM)?
A: 8.27%
